“Also recorded” adds a separate entry of the source. No end group written: not given here.
Assays:
[1] = system: Parkinson's disease progression; details: ClinicalTrials.gov ID NCT02906020; cited from earlier work
Source text: In the context of diseases, where lysosomal GCase activity is reduced, activation of either impaired mutated GCase or residual wt GCase could provide a therapeutic strategy for restoring lysosomal function. Both in GBA1‐associated and in GBA1‐wt PD models and patients, ongoing preclinical and clinical studies are already exploring this possibility, predominantly at the stage of screening for GCase activators for the treatment of Gaucher and Parkinson's disease.^[ [57], [58] ^] Despite the expected increase of the prevalence of PD and worldwide disease burden due to increasing life expectancy a ...

[2] = system: lysosomal GCase in primary human fibroblasts (CTRL‐2, PD‐1, PD‐2); test: Live cell measurement of lysosomal GCase activity (PFB‐Gluc); format: cell-based; details: 10 µM peptide, 48 h, area between curves (total minus bafilomycin), n = 3
Procedure: GCase activity inside the lysosomes of living cells was measured via the fluorescent probe PFB‐Gluc (ThermoFisher Scientific Inc., Waltham, MA, United States, #P11947). The experimental procedure was adapted from Cuddy and Mazzulli.^[ [72] ^] Primary human fibroblasts were seeded at 20 000 cells per well on a black 96‐well cell culture dish with transparent bottom (Corning, Corning, NY, United States, #3603). For each replicate, two wells were seeded. […] The next day, the medium was changed again to 50 µL of fresh media containing treatment. On day 3, one of the two‐seeded wells for each replicate (control well) was treated with 200 nM bafilomycin 1A (Baf, Santa Cruz Biotechnology, Dallas, TX, United States, #sc‐201550A) for 1 h to inhibit lysosomal enzyme activity. […] Immediately after, the first fluorescence measurement was taken (PFB‐Gluc: λ ex: 485 nm; λ em: 538 nm; cutoff: 495 nm). The cells were kept at 37 °C and measured every 30 min for a total of 180 min. […]
For data evaluation, PFB‐Gluc measurements over time were baseline‐corrected and then normalized per well to the respective CellTag 700 signal (cell volume). Replicates were arranged in an XY diagram with their respective Baf control and the AUC for both curves was calculated. Lysosomal activity was then calculated by subtracting the baf control (non‐lysosomal activity) AUC from the non‐inhibited AUC (total activity).

[3] = system: recombinant GCase (Cerezyme/imiglucerase); test: 4MU GCase activity assay with recombinant enzyme Cerezyme/imiglucerase; format: biochemical; details: varying peptide concentrations, 4MU substrate, detergent‐free, n = 3
Procedure: Activity of GCase‐containing samples (recombinant protein, cell lysate, LE fractions, conditioned culture medium) was measured using the synthetic substrate 4‐methylumbelliferyl‐β‐D‐glucopyranoside (4MU, Merck Millipore, Billerica, MA, United States, #M3633). […] of the sample (cell supernatant, SEC fractions) or 2.5 µg of total protein from whole‐cell lysates were added to the well of a black 96‐well Maxisorp plate (ThermoFisher Scientific Inc., Waltham, MA, United States, #437 111). The reaction volume was then increased to 100 µL with GCase activity buffer (see paragraph “Cell Lysis”) and a final concentration of 1 µM of 4MU substrate was added. After incubation at 37 °C for 30 min, the reaction was stopped by adding 100 µL of stop solution (0.1 M glycine, pH 10.4). GCase activity was quantified via fluorescence of released 4‐methylumbelliferone (endpoint measurement) using an Infinite 200 Pro (TECAN, Männedorf, Switzerland), SpectraMax Gemini (Molecular Devices, San José, CA, United States) or ClarioStar (BMG LABTECH, Ortenberg, Germany) multiplate reader (λ ex: 365 nm; λ em: 445 nm).
For all activity assays in the presence of recombinant LIMP‐2 or synthetic peptides, sodium taurocholate, and Triton X‐100 were omitted from the reaction to not hinder protein–protein interaction. […]

[4] = system: primary human fibroblasts (CTRL‐2, PD‐1, PD‐2); test: Toxicity assessment via LDH release; format: cell-based
Procedure: Primary human fibroblasts were seeded on a 96‐well plate at 3 × 10^4 cells per well. The next day, the medium was replaced with a 50 µL fresh fibroblast medium containing various concentrations of L2H5‐wt peptide (0–20 µM). The cells were incubated for 72 h before the conditioned medium was harvested. LDH release to the cell medium as a marker for cell death was measured using a CyQuant LDH Cytotoxicity Assay Kit (Invitrogen, Waltham, MA, United States #C20300) following the manufacturer's instructions. For each condition, three wells were seeded and measured as triplicates. A480 and […] absorption values were measured using a ClarioStar (BMG LABTECH, Ortenberg, Germany) multiplate reader. LDH enzyme activity was determined by calculating the difference between A480 and A690 values for each well.

[5] = Precipitation / solubility of peptide in assay buffers; format: physicochemical; details: lysosomal pH 5.0, higher concentrations
Procedure: Activity of GCase‐containing samples (recombinant protein, cell lysate, LE fractions, conditioned culture medium) was measured using the synthetic substrate 4‐methylumbelliferyl‐β‐D‐glucopyranoside (4MU, Merck Millipore, Billerica, MA, United States, #M3633). […] of the sample (cell supernatant, SEC fractions) or 2.5 µg of total protein from whole‐cell lysates were added to the well of a black 96‐well Maxisorp plate (ThermoFisher Scientific Inc., Waltham, MA, United States, #437 111). The reaction volume was then increased to 100 µL with GCase activity buffer (see paragraph “Cell Lysis”) and a final concentration of 1 µM of 4MU substrate was added. […] GCase activity was quantified via fluorescence of released 4‐methylumbelliferone (endpoint measurement) using an Infinite 200 Pro (TECAN, Männedorf, Switzerland), SpectraMax Gemini (Molecular Devices, San José, CA, United States) or ClarioStar (BMG LABTECH, Ortenberg, Germany) multiplate reader (λ ex: 365 nm; λ em: 445 nm). […]
For interaction of GCase with L2H5‐wt peptide, recombinant GCase was produced in‐house (see paragraph “Expression and Purification of His‐tagged GCase‐wt Protein”) and labeled as described for Cerezyme. […] For each replicate, a twofold dilution series of 16 samples was measured, starting at 125 µM ligand (L2H5‐wt) concentration. […]

HEK 293T cells = details: 5 µM L2H5‐wt, LC‐MS/MS
Procedure: HEK 293T cells were seeded on 10 cm dishes. When confluence was reached, the cells were treated with 5 µM of L2H5‐wt for 2 and 24 h before harvesting. LE fractions were generated as described before (see “Expression and enrichment of lysosomes from HEK 293T cells”). Proteome analysis was performed as described in the following:
The LE fractions were processed using the single‐pot, solid‐phase‐enhanced sample‐preparation (SP3) approach.^[ [74] ^] The proteins were then digested using trypsin overnight at 37 °C. The resultant peptide solution was purified by solid phase extraction in C18 StageTips.^[ [75] ^]
Samples were analyzed using an Orbitrap Exploris 480 mass spectrometer (Thermo Fisher Scientific, Waltham, MA, United States) coupled to an EASY‐nLC 1200 UHPLC system (Thermo Fisher Scientific, Waltham, MA, United States). Peptides were separated in an in‐house packed 60‐cm analytical column (inner diameter: 75 µm; ReproSil‐Pur 120 C18‐AQ 1.9‐µm silica particles, Dr. Maisch, Ammerbuch, Germany) by online reversed‐phase chromatography through a 120‐min gradient of 2.4–32% v/v acetonitrile with 0.1% v/v formic acid at a nanoflow rate of 250 nl min^−1. The eluted peptides were sprayed directly by electrospray ionization into the mass spectrometer. […]

SEC of FRed-L2H5-wt = format: physicochemical; details: Superdex 200 Increase 10/300 GL, PBS, 0.5 mL min^−1, UV280 and UV580
Procedure: Two hundred microliters of protein solution were injected using a 500 μL loop. Fractions of 1000 μL were collected. Based on the UV280 and UV580 elution profiles, fraction 15 containing monomeric […] concentrated using a 10K Amicon ultra 0.5 filter unit.

Question: For `CC(C)(NC(=O)O[C@@H]1CN2CCC1CC2)c1csc(-c2ccc(F)cc2)n1` [venglustat], which clinical trial outcome [1] is on record?
Answer: changing GluCer levels alone may not be sufficient to positively affect disease progression

Question: With “KFERQGSGSQVHFLREDDEAMDKAYQSGSGYGRKKRRQRRR [L2H5‐3xD]” as the molecule, how does the “lysosomal GCase activity” value [2] read?
Answer: did not affect lysosomal GCase activity; also recorded: did not elevate lysosomal GCase activity

Question: What about the “effect on GCase activity, concentration dependence” value [3] of the same molecule?
Answer: no effect on GCase activity

Question: For “KFERQGSGSQVHFLREIIEAMLKAYQSGSGYGRKKRRQRRR-NH2 [L2H5‐wt]”, which “concentration tolerated (no increase in cell death, LDH release)” value ([4]; 0–20 µM, 72 h, CTRL‐2, PD‐1, PD‐2 fibroblasts, n = 3) is on record?
Answer: up to 10 µM

Question: And the “LDH release at 20 µM” value ([4]; 20 µM, 72 h, CTRL‐2, PD‐1, PD‐2 fibroblasts, n = 3)?
Answer: strong increase in LDH release; also recorded: LDH activity in the medium was significantly increased

Question: And the “concentration at which cell toxicity starts” value ([4]; primary fibroblasts)?
Answer: ≥ 20 µM

Question: What about the “solubility in MST measurement” value [5] of the same molecule?
Answer: insufficient solubility of the peptide at higher concentrations

Question: What about the “L2H5‐wt‐specific tryptic peptides detected in LE fractions, 2 h” value (HEK 293T cells) of the same molecule?
Answer: peptides 2 and 3; also recorded: could be detected by mass spectrometry 2 h

Question: With “QVHFLREIIEAMLKAYQ [FRed‐L2H5‐wt, L2H5‐wt peptide fused to FusionRed, expressed in E. coli]” as the molecule, how does the “aggregation in SEC profile” value (SEC of FRed-L2H5-wt) read?
Answer: The earlier peak likely consists of aggregated protein
